Experiments:
FKBP12-PTP1BS187C = target: T1, FKBP12-PTP1BS187C (Homo sapiens, UniProt P18031+P62942, C121S/C32S/C92V/S187C); assay: Crystal structure of FKBP12-C3SLF-PTP1BS187C ternary complex
T1 construct: residues 1-293 containing C32S/C92V/C121S/S187C; made in house
Protocol: Experimental Protocol: […] and FKBP12 were added to PTP1B[…] lite at 3:1 molar excess in 12.5 mM HEPES pH 7.4, 75 mM NaCl buffer, 4% DMSO, and incubated 36-72 hours at 4° C. Pure complex was isolated by size exclusion chromatography on a Superdex 75 column in 12.5 mM HEPES pH 7.4 and 75 mM NaCl. Purified complex (at 15 mg/ml) was subjected to crystallization screening at 20° C. using sitting drop vapor diffusion method. Crystals were grown in a well solution containing 0.2 M Magnesium Acetate, 20% w/v PEG 3350. For data collection, crystals were transferred to a solution containing mother liquor supplemented with 25% PEG400, and then frozen in liquid nitrogen. Diffraction datasets were collected at the Advanced Photon Source (APS) and processed with the XDS program. Molecular replacement solutions were obtained using the program PHASER in the CCP4 suite, using the published structure of FKBP12 (PDB-ID 2PPN) and PTP1B (PDB-ID 2NT7) as search models. Subsequent model building and refinement were performed according to standard protocols with the software packages CCP4 and COOT.

KRASGTP/G12C [1] = target: T2, KRASGTP/G12C (Homo sapiens, UniProt P01116+P62942, G12C); assay: Cross-linking gel shift assay (12% SDS-PAGE), with or without FKBP12; assay type: binding; settings: 60 μM KRAS, 180 μM FKBP12, 180 μM ligand, quenched by MMTS
T2 construct: KRASGTP/G12C (in-house, residues 1-169); made in house
Protocol: In parallel to mass spectrometry analysis, cross-linking reactions with C3- or C4-SLF were subjected to gel shift assay using 12% SDS-PAGE in the presence or absence of FKBP12 at the same experimental condition described above except that cross-linking reactions were set up at higher concentrations (60 μM KRAS, 180 μM FKBP12, and 180 μM C3- or C4-SLF) and they were quenched by MMTS to terminate the reaction.

KRASGTP/G12C [2] = target: T2, KRASGTP/G12C; assay: Disulfide cross-linking efficiency by mass spectrometry, with or without FKBP12; assay type: binding; settings: 2 μM KRAS, 10 μM ligand, 4 hours RT, MS
Protocol: Experimental protocol: In order to follow the kinetics of disulfide crosslinking reactions, Agilent 6230 TOF-LC/MS and Agilent 1260 HPLC instruments employing a AdvanceBio RP-mAb C4 column (2.1×100 mm, 3.5 μm) and equipped with an auto-sampler were used. HPLC grade acetonitrile and water (each containing 1.0 mM ammonium formate and 1% formic acid by volume) were used as mobile phase with the following ramp: 0.6 ml/min flow rate, water:acetonitrile=95:5 from 0.0 to 13.0 min ramping to water:acetonitrile=5:95 from 13.0 to 17.0 min. Total time=17.0 min.
All crosslinking reactions were performed in 1.5 mL amber colored glass vials equipped with 0.5 mL glass inserts. A water-soluble peptide (SEQ ID NO: 1: […]) was employed as an internal standard. Although the actual sequence of the internal standard is inconsequential, choice of amino acid residues were critical to avoid interference in the crosslinking assays. […] All reactions and standard solutions were prepared in HEPES (pH 7.4, 1.0 mM MgCl2) buffer.
Prior to every reaction, a standard curve was obtained for the individual components using a series of standard solutions (an example of standard curve analysis for FKBP12 is shown in Table 3 below). Using the data from standard curve, μmol of protein samples were plotted against the ratio of areas (sample:std) and a linear fit (y=mx+c) was employed to obtain the slope and intercept. The value of slope and intercept involved in these standard curves were accounted for during evaluation of the substrate and product concentration before and during the course of the reaction. For every substrate/product, an initial injection was followed up by a blank injection to verify presence of any residual protein/reagents. Based on this analysis the sequence of auto-sampler can be adjusted to included appropriate number of blank injections for removal of residual components, if any. The MS spectra were analyzed using Agilent MassHunter v B.07.0 software.
In a representative experiment to assess the presenter dependency of ligand cross-linking on the target protein, KRASGTP/G12C and either C3- or C4-SLF ligand were incubated in the presence or absence of FKBP12 at concentrations of 2 μM KRAS, 10 μM FKBP12, 10 μM C3- or C4-SLF for 4 hours at room temperature in 12.5 mM HEPES pH 7.4, 75 mM NaCl, 1 mM MgCl2, 3% DMSO. Analysis of the amount of KRAS undergoing disulfide cross-linking with the ligand using the method above.

PTP1BS187C lite/FKBP12 = target: T3, PTP1BS187C lite/FKBP12 (Homo sapiens, UniProt P18031+P62942, C121S/C32S/C92V/S187C); assay: Ternary complex formation by SEC and SDS-PAGE; assay type: binding; settings: SEC profile and SDS-PAGE of elution peaks
T3 construct: residues 1-293 containing C32S/C92V/C121S/S187C; made in house
T3 sequence (P18031 1-293 C32S/C92V/C121S/S187C limits assumed): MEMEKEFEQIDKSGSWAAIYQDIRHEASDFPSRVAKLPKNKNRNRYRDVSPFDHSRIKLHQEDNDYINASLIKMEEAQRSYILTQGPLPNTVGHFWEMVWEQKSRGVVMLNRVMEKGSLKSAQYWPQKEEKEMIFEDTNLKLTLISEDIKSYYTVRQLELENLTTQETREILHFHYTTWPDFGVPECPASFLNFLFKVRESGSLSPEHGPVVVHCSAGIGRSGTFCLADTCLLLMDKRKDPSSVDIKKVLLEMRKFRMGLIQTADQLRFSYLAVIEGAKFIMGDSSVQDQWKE
T3 sequence (P62942 whole entry, the tested form may be a part): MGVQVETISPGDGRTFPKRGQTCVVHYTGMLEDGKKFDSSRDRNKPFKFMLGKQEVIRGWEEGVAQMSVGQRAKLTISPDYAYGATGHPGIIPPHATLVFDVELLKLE
Protocol: A 1:2:2 molar ratio of compound, presenter protein, and target protein are mixed together in 12.5 mM HEPES pH 7.4, 75 mM NaCl buffer containing 2% DMSO. The reaction is incubated at 37° C. for 30 min, followed by overnight incubation at room temperature. Pure complex is isolated by Size Exclusion Chromatography (SEC) purification. The reaction mixture is directly injected on a Superdex 75 column (CV 120 mL) pre-equilibrated with buffer containing 12.5 mM HEPES pH 7.4, 75 mM NaCl. Complex elutes at a higher molecular weight than unreacted target protein and presenter protein. To confirm presence of complex in the elution peak, samples are assessed by SDS-PAGE.
Experimental Protocol: A 1:3:3 molar ratio of C3-SLF, FKBP12, and PTP1BS187C lite are mixed together in 12.5 mM HEPES pH 7.4, 75 mM NaCl buffer containing 4% DMSO. The reaction is incubated at 37° C. for 30 min, followed by overnight incubation at room temperature. Pure complex is isolated by Size Exclusion Chromatography (SEC) purification. The reaction mixture is directly injected on a Superdex 75 column (CV 120 mL) pre-equilibrated with buffer containing 12.5 mM HEPES pH 7.4, 75 mM NaCl. […] To confirm the presence of PTP1BS187C lite and FKBP12 in the elution peak, samples are also assessed by SDS-PAGE. […]

MCL1S245C/FKBP52 = MCL1S245C/FKBP52 (Homo sapiens, UniProt Q02790+Q07820, C286S/S245C); assay: Crystal structure of MCL1S245C/C3SLF/FKBP52 ternary complex; settings: 3.0 Å
Sequence of MCL1S245C/FKBP52 (Q07820 172-327 S245C/C286S): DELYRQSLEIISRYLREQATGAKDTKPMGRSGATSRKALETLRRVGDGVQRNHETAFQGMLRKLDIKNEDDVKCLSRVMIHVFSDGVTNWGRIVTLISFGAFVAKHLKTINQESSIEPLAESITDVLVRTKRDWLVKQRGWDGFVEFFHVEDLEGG
Sequence of MCL1S245C/FKBP52 (Q02790 1-140): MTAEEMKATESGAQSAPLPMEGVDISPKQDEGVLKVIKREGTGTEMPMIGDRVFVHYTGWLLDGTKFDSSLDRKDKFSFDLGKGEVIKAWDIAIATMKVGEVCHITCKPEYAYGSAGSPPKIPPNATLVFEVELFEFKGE
Protocol: Experimental Protocol: […] and FKBP52 were mixed with MCL1[…] lite at 3:1 molar excess in 12.5 mM HEPES pH 7.4, 75 mM NaCl buffer, 2% DMSO, and incubated 24-48 hours at 4° C. Pure complex was isolated by size exclusion chromatography on a Superdex 75 column in 12.5 mM HEPES pH 7.4 and 75 mM NaCl. Purified complex (at 15 mg/ml) was subjected to crystallization screening at 20° C. using sitting drop vapor diffusion method. Crystals were grown in a well solution containing 2.1 M Malic acid. For data collection, crystals were transferred to a solution containing mother liquor supplemented with 20% glycerol, and then flash-frozen in liquid nitrogen. 3.0 Å resolution diffraction dataset was measured at the Advanced Photon Source (APS) and processed with the XDS program. Molecular replacement solutions were obtained using the program PHASER in the CCP4 suite, using the published structure of FKBP52 (PDB-ID 1N1A) and […] (PDB-ID 3MK8) as search models. Subsequent model building and refinement were performed according to standard protocols with the software packages CCP4 and COOT.

T1 sequence (P18031 1-293 C32S/C92V/C121S/S187C limits assumed): as the sequence (P18031 1-293 C32S/C92V/C121S/S187C limits assumed) above
T1 sequence (P62942 whole entry, the tested form may be a part): as the sequence (P62942 whole entry, the tested form may be a part) above

CCC(C)(C)C(=O)C(=O)N1CCCC[C@H]1C(=O)O[C@H](CCc1ccc(OC)c(OC)c1)c1cccc(NC(=O)CCSSc2ccccn2)c1 [Compound C3-SLF, (R)-3-(3,4-dimethoxyphenyl)-1-(3-(3-(pyridin-2-yldisulfanyl)propanamido)phenyl)propyl (S)-1-(3,3-dimethyl-2-oxopentanoyl)piperidine-2-carboxylate]
Buried surface area of ligand (FKBP12-PTP1BS187C): 615 Å^2
Ligand cross-linking efficiency in the presence of FKBP12, gel shift (KRASGTP/G12C [1]): boosted significantly
% × link to KRAS (KRASGTP/G12C [2]; FKBP12 absent (−)): 9.6%
% × link to KRAS (KRASGTP/G12C [2]; FKBP12 present (+) 10 μM): 47.5%
Formation of PTP1BS187C lite/C3-SLF/FKBP12 complex (PTP1BS187C lite/FKBP12): confirm the formation
Buried surface area of the complex contributed by ligand (MCL1S245C/FKBP52): 606 Å2
